Test results from US9284333B2, “Fused pyrroledicarboxamides and their use as pharmaceuticals” (SANOFI, priority 2012, dated 2016).

molecular target: Human TASK-1 channels (Homo sapiens (Human), UniProt O14649); assay: Determination of the activity on the TASK-1 channel in Xenopus oocytes (two-microelectrode voltage clamp); type: cell-based; conditions: compound concentration 5 μM
Method: Determination of the activity on the TASK-1 channel in Xenopus oocytes
Human TASK-1 channels were expressed in Xenopus oocytes. For this purpose, oocytes were isolated from Xenopus laevis and defoliculated. Subsequently, TASK-1-encoding RNA synthesized in vitro was injected into the oocytes. After two days of TASK-1 protein expression, TASK-1 currents were measured by two-microelectrode voltage clamp. Data were acquired and analyzed using a TEC-10cx amplifier (NPI Electronic, Tamm, Germany) connected to an ITC-16 interface (Instrutech Corp., Long Island, USA) and Pulse software (HEKA Elektronik, Lambrecht, Germany). Oocytes were clamped to −90 mV and TASK-1 mediated currents were measured during 500 ms voltage pulses to 40 mV. Oocytes were continuously superfused with ND96 buffer containing 96 mM sodium chloride, 2 mM potassium chloride, 1.8 mM calcium chloride, 1 mM magnesium chloride, 5 mM 4-(2-hydroxyethyl)-piperazine-1-ethanesulfonic acid (HEPES; pH adjusted to 7.4 with sodium hydroxide). All experiments were performed at room temperature. Test compounds were consecutively added to the bath solution at rising concentrations. Compound effects were calculated as the percentage inhibition of TASK-1 control current before compound addition. IC50 values were obtained by fitting the data to the general dose-response equation.

Human TASK-1 channels, sequence (O14649 whole entry): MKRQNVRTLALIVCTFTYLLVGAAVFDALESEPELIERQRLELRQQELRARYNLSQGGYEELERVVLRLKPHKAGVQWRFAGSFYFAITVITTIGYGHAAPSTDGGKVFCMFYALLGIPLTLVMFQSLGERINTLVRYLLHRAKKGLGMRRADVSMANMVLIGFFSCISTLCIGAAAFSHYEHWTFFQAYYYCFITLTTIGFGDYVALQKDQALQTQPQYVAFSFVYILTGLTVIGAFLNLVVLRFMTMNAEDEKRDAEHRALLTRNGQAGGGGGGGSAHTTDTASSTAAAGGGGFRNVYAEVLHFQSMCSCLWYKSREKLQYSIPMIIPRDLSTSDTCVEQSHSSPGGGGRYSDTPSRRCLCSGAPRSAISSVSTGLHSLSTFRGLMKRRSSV

inhibition at 5 µM	Structure (SMILES)
53%	CC[C@@H](NC(=O)c1cc(C(=O)N2CCC[C@@H]2C)n2c1COCC2)c1cncc(C(F)(F)F)c1 [16bk, 6-((S)-2-Methyl-pyrrolidine-1-carbonyl)-3,4-dihydro-1H-pyrrolo[2,1-c][1,4]oxazine-8-carboxylic acid [(R)-1-(5-trifluoromethyl-pyridin-3-yl)-propyl]-amide]
81%	C[C@H]1CCCN1C(=O)c1cc(C(=O)NCc2ccccc2Cl)c2n1CCOC2 [16an, 6-((S)-2-Methyl-pyrrolidine-1-carbonyl)-3,4-dihydro-1H-pyrrolo[2,1-c][1,4]oxazine-8-carboxylic acid 2-chloro-benzylamide]
89%	C[C@@H](NC(=O)c1cc(C(=O)NCC2CC2)c2n1CCOC2)c1ccc(F)cc1 [16ds, 3,4-Dihydro-1H-pyrrolo[2,1-c][1,4]oxazine-6,8-dicarboxylic acid 8-cyclopropylmethyl-amide 6-{[(R)-1-(4-fluoro-phenyl)-ethyl]-amide}]

same assay, conditions: human TASK-1 expressed in Xenopus oocytes, room temperature; read-out: IC50 value for TASK-1 inhibition

Structure (SMILES)	IC50
CC[C@@H](NC(=O)c1cc(C(=O)N2CCC[C@@H]2CNC(C)=O)n2c1COCC2)c1ccccc1 [16fh, 6-[(R)-2-(Acetylamino-methyl)-pyrrolidine-1-carbonyl]-3,4-dihydro-1H-pyrrolo[2,1-c][1,4]oxazine-8-carboxylic acid ((R)-1-phenyl-propyl)-amide]	5200 nM
COC(=O)[C@H]1CCCN1C(=O)c1cc(C(=O)N[C@@H](c2ccc(F)cc2)C(C)C)n2c1COCC2 [16ln, (R)-1-{6-[(R)-1-(4-Fluoro-phenyl)-2-methyl-propylcarbamoyl]-3,4-dihydro-1H-pyrrolo[2,1-c][1,4]oxazine-8-carbonyl}-pyrrolidine-2-carboxylic acid methyl ester]	140 nM
CC[C@@H](NC(=O)c1cc(C(=O)N2CCC[C@@H]2C)n2c1C(C)OCC2)c1ccccc1 (stereo partly drawn) [16lf, 1-Methyl-6-((S)-2-methyl-pyrrolidine-1-carbonyl)-3,4-dihydro-1H-pyrrolo[2,1-c][1,4]oxazine-8-carboxylic acid ((R)-1-phenyl-propyl)-amide]	110 nM
CC[C@@H](NC(=O)c1cc(C(=O)Nc2c(C)noc2C)n2c1COCC2)c1ccccc1 [16hg, 3,4-Dihydro-1H-pyrrolo[2,1-c][1,4]oxazine-6,8-dicarboxylic acid 6-[(3,5-dimethyl-isoxazol-4-yl)-amide] 8-[((R)-1-phenyl-propyl)-amide]]	600 nM
CC[C@@H](NC(=O)c1cc(C(=O)N2CCOCC2)n2c1COCC2)c1ccccc1 [16eh, 6-(Morpholine-4-carbonyl)-3,4-dihydro-1H-pyrrolo[2,1-c][1,4]oxazine-8-carboxylic acid ((R)-1-phenyl-propyl)-amide]	1700 nM
CC[C@@H](NC(=O)c1cc(C(=O)N2CCC[C@@H]2C)n2c1COCC2)c1cccc(C#N)n1 [16ah, 6-((S)-2-Methyl-pyrrolidine-1-carbonyl)-3,4-dihydro-1H-pyrrolo[2,1-c][1,4]oxazine-8-carboxylic acid [(R)-1-(6-cyano-pyridin-2-yl)-propyl]-amide]	3200 nM
CC[C@@H](NC(=O)c1cc(C(=O)N2CCC[C@@H]2C)n2c1COCC2)c1ccc(Cl)cc1 [16pg, 6-((S)-2-Methyl-pyrrolidine-1-carbonyl)-3,4-dihydro-1H-pyrrolo[2,1-c][1,4]oxazine-8-carboxylic acid [(R)-1-(4-chloro-phenyl)-propyl]-amide]	190 nM
CC[C@@H](NC(=O)c1cc(C(=O)N[C@@H](C)C2CC2)n2c1CCCC2)c1ccccc1 [16mz, 5,6,7,8-Tetrahydro-indolizine-1,3-dicarboxylic acid 3-[((S)-1-cyclopropyl-ethyl)-amide] 1-[((R)-1-phenyl-propyl)-amide]]	42 nM
CC[C@@H](NC(=O)c1cc(C(=O)NCC(CC2CC2)c2ccccc2)n2c1CCCC2)c1ccccc1 (stereo partly drawn) [16na, 5,6,7,8-Tetrahydro-indolizine-1,3-dicarboxylic acid 3-[(3-cyclopropyl-2-phenyl-propyl)-amide] 1-[((R)-1-phenyl-propyl)-amide]]	1700 nM
C[C@H]1CCCN1C(=O)c1cc(C(=O)NCc2ccc(F)cc2Cl)c2n1CCOC2 [16x, 6-((S)-2-Methyl-pyrrolidine-1-carbonyl)-3,4-dihydro-1H-pyrrolo[2,1-c][1,4]oxazine-8-carboxylic acid 2-chloro-4-fluoro-benzylamide]	190 nM
CC(C)[C@@H](NC(=O)c1cc(C(=O)N2CCC[C@@H]2C)n2c1COCC2)c1ccc(F)cc1 [16p, 6-((S)-2-Methyl-pyrrolidine-1-carbonyl)-3,4-dihydro-1H-pyrrolo[2,1-c][1,4]oxazine-8-carboxylic acid [(R)-1-(4-fluoro-phenyl)-2-methyl-propyl]-amide]	380 nM
CCOC(=O)[C@H](NC(=O)c1cc(C(=O)N[C@H](CC)c2ccccc2)c2n1CCOC2)c1ccccc1 [16hq, (R)-Phenyl-{[8-((R)-1-phenyl-propylcarbamoyl)-3,4-dihydro-1H-pyrrolo[2,1-c][1,4]oxazine-6-carbonyl]-amino}-acetic acid ethyl ester]	320 nM
CC[C@@H](NC(=O)c1cc(C(=O)N2CCC[C@@H]2C(C)OC)n2c1COCC2)c1ccccc1 (stereo partly drawn) [16ez, 6-[(R)-2-(1-Methoxy-ethyl)-pyrrolidine-1-carbonyl]-3,4-dihydro-1H-pyrrolo[2,1-c][1,4]oxazine-8-carboxylic acid ((R)-1-phenyl-propyl)-amide]	500 nM

Results, then the compound that gave them:

IC50	Structure (SMILES)
130 nM	CC[C@H](NC(=O)c1cc(C(=O)N[C@H](CC)c2ccccc2)c2n1CCOC2)c1cnc(OC)cn1 [16hz, 3,4-Dihydro-1H-pyrrolo[2,1-c][1,4]oxazine-6,8-dicarboxylic acid 6-{[(S)-1-(5-methoxy-pyrazin-2-yl)-propyl]-amide} 8-[((R)-1-phenyl-propyl)-amide]]
300 nM	CC[C@@H](NC(=O)c1cc(C(=O)NC(C)c2ncccn2)c2n1CCOC2)c1ccccc1 (mixture of isomers) [16jz, 3,4-Dihydro-1H-pyrrolo[2,1-c][1,4]oxazine-6,8-dicarboxylic acid 6-[((R)-1-phenyl-propyl)-amide] 8-[(1-pyrimidin-2-yl-ethyl)-amide]]
13 nM	CC[C@@H](NC(=O)c1cc(C(=O)N2CCC[C@@H]2C)n2c1COCC2)c1ccc(C(F)(F)F)c(Cl)c1 [16c, 6-((S)-2-Methyl-pyrrolidine-1-carbonyl)-3,4-dihydro-1H-pyrrolo[2,1-c][1,4]oxazine-8-carboxylic acid [(R)-1-(3-chloro-4-trifluoromethyl-phenyl)-propyl]-amide]
1800 nM	CC[C@@H](NC(=O)c1cc(C(=O)NC(C)c2cccc(S(N)(=O)=O)c2)n2c1COCC2)c1ccccc1 (stereo partly drawn) [16ip, 3,4-dihydro-1H-pyrrolo[2,1-c][1,4]oxazine-6,8-dicarboxylic acid 8-[((R)-1-phenyl-propyl)-amide] 6-{[1-(3-sulfamoyl-phenyl)ethyl]-amide}]
280 nM	CC[C@@H](NC(=O)c1cc(C(=O)N2CCC[C@@H]2C)n2c1COCC2)c1ccc(OC(F)(F)F)cc1 [16aw, 6-((S)-Methyl-pyrrolidine-1-carbonyl)3,4-dihydro-1H-pyrrolo[2,1-c][1,4]oxazine-8-carboxylic acid [(R)-1-(4-trifluoromethoxy-phenyl)-propyl]-amide]
1500 nM	C[C@@H](NC(=O)c1cc(C(=O)N[C@H](C)c2ncccn2)c2n1CCOC2)c1ccc(F)cc1 (racemic) [16dy, 3,4-Dihydro-1H-pyrrolo[2,1-c][1,4]oxazine-6,8-dicarboxylic acid 6-{[(R)-1-(4-fluoro-phenyl)-ethyl]-amide} 8-[((R)-1-pyrimidin-2-yl-ethyl)-amide]]
300 nM	CC[C@@H](NC(=O)c1cc(C(=O)N2CCC[C@@H]2C)n2c1COCC2)c1ccc(C(F)(F)F)cc1Cl [16cq, 6-((S)-2-Methyl-pyrrolidine-1-carbonyl)-3,4-dihydro-1H-pyrrolo[2,1-c][1,4]oxazine-8-carboxylic acid [(R)-1-(2-chloro-4-trifluoromethyl-phenyl)-propyl]-amide]
410 nM	CC[C@@H](NC(=O)c1cc(C(=O)N2CCC[C@@H]2C(F)(F)F)n2c1COCC2)c1ccc(C(F)(F)F)nc1 [16o, 6-((R)-2-Trifluoromethyl-pyrrolidine-1-carbonyl)-3,4-dihydro-1H-pyrrolo[2,1-c][1,4]oxazine-8-carboxylic acid [(R)-1-(6-trifluoromethyl-pyridin-3-yl)-propyl]-amide]
2200 nM	CC[C@@H](NC(=O)c1cc(C(=O)N[C@H](C)C2CC2)n2c1COCC2)c1ccc(C(F)(F)F)nc1 [16nz, 3,4-Dihydro-1H-pyrrolo[2,1-c][1,4]oxazine-6,8-dicarboxylic acid 6-[((R)-1-cyclopropyl-ethyl)-amide] 8-{[(R)-1-(6-trifluoromethyl-pyridin-3-yl)-propyl]-amide}]
3100 nM	CC[C@@H](NC(=O)c1cc(C(=O)NCc2ccc(F)cc2F)c2n1CCOC2)c1cnccn1 [16ns, 3,4-Dihydro-1H-pyrrolo[2,1-c][1,4]oxazine-6,8-dicarboxylic acid 8-(2,4-difluoro-benzylamide) 6-[((R)-1-pyrazin-2-yl-propyl)-amide]]
350 nM	CC[C@H](NC(=O)c1cc(C(=O)N[C@H](C)c2ccc(F)cc2)n2c1COCC2)c1ncc(C(F)(F)F)cn1 [16ee, 3,4-Dihydro-1H-pyrrolo[2,1-c][1,4]oxazine-6,8-dicarboxylic acid 6-{[(R)-1-(4-fluoro-phenyl)-ethyl]-amide} 8-{[(S)-1-(5-trifluoromethyl-pyrimidin-2-yl)-propyl]-amide}]
